Laboratory results published in US9314420B2, “Acellular bioabsorbable tissue regeneration matrices” (priority 2005, dated 2016).
Read-outs that look alike come from different tables or passages of the source.

Experiments:
[1] = system: Fibroblast control cultures; settings: by day 7
Experimental: The inhibitors were added on day 0 to the Opticells® on the day of first feeding (day 5 or 6). Thereafter, cultures were fed with regular media. Samples from the respective treatments and controls were collected on day 21 and analyzed.
Fibroblast control cultures containing 0, 10, 30 and 100 nM of α-amanitin were cultured for one week.

Neuroscreen® cells = experiment: Neuroscreen cell neurite outgrowth assay; format: cell-based, rat; settings: standard NGF response curve
Experimental: The Neuroscreen® cells responded by extending neurites.
Neuroscreen® cells were maintained prior to the interaction assay by routine culture on collagen coated plastic and subcultured at confluence using basal medium consisting of RPMI (Cat #10-040-CV, Mediatech), 4.0 mM Glutamine (CAT #25-005-CI, Mediatech) supplemented with 20% Horse Serum (Cat #35-030-CV, Mediatech), 10% Fetal Bovine Serum (Cat #35-010, Mediatech).
[…] Neuroscreen® cells were assayed for the formation of neurite process extension using immuno-staining for β-tubulin as follows. Cells were fixed after 4 days in culture by adding 10% v/v of 37% formaldehyde (Cat. #2106-01, J. T. Baker) directly to the culture medium in the well. […]
Only wells with cell counts above 100 cells per field were analyzed. […]
Human peripheral blood collected into ten 8 ml Vacutainer™ tubes containing K2EDTA was shipped overnight on ice and then placed vertically into a +4° C. fridge for 6 hours in order to allow the blood to gravity separate. […] After thoroughly mixing the contents of each conical tube, 10 ml quantities of the solutions were injected into separate sets of 5 Opticells™, and then placed horizontally into a 37° C., […], 2% O2, non-humidified incubator. […]

`CC[C@H](C)[C@@H]1NC(=O)CNC(=O)[C@@H]2Cc3c([nH]c4cc(O)ccc34)[S+]([O-])C[C@@H](NC(=O)CNC1=O)C(=O)N[C@@H](CC(N)=O)C(=O)N1C[C@H](O)C[C@H]1C(=O)N[C@@H]([C@@H](C)[C@@H](O)CO)C(=O)N2` (stereo in doubt) [α-amanitin] was tested, and the Mortality ([1]; 10 nM) was 60-70%, the Mortality ([1]; 30 nM) was 80-90% and the Mortality ([1]; 100 nM) was about 100%.

“NGF: nerve growth factor, positive control at 100 ng/ml” was tested, and the “Effect of fresh NGF at amounts less than 10 ng per well” value (Neuroscreen® cells) was “limited or no effect” and the “NGF amount at which maximal responses occur” value (Neuroscreen® cells; fresh NGF) was 100 ng of NGF per well.
